# Data from patent US4855323A, “Leukotriene antagonists, a process for the preparation thereof, and the use thereof for the treatment of diseases” (Hoechst Aktiengesellschaft, priority 1987, dated 1989).
# Tests used:
# Assay type in all cases: cell-based
# [1] = test system: LTC4-induced contraction of strips of guinea pig lung; assay: inhibition of LTC4-induced contraction of strips of guinea pig lung; conditions: Cavia porcellus; LTC4 3 ng/ml; indomethacin-pretreated strips (10^-6 g/ml); test substance added after maximum contraction plateau; 37° C.; read-out: IC50 with respect to LTC4
# Experimental: (§1) The leukotriene-antagonistic action of the substances of the general formula I according to the invention is determined by the inhibition of the leukotriene-induced contraction of strips of guinea pig lung. The method which is used is a modification of the test described by Foreman, Shelly and Weber (Arch. Int. Pharmacodyn. 278, 193-206 (1985)).
# (§2) Guinea pigs are sacrificed by an overdose of ether. The thoracic cavity is opened; the lungs are removed and cut into strips 5 cm long, which are stored in physiological saline. For the measurement, the strips of lung are placed in an organ bath filled with Ringer's solution which is equilibrated at 37° C. and through which carbogen (O2 /CO2 95:5 parts by volume) is passed. The strips are left to equilibrate under a load of 0.5-1 g for 30-60 minutes. The strips of lung are pretreated with indomethacin (10^-6 g/ml of bath liquid) before the test starts.
# (§3) The contraction is induced by adding LTC4, LTD4 or LTE4 in a concentration of 3 ng/ml of bath liquid. The test substances are administered therapeutically into the bath, after the maximum contraction plateau has been reached, in several concentrations and at time intervals of 10 minutes. 6-12 strips of lung are used for each concentration of the test substance.
# (§4) The concentrations of the test substances at which the contraction is reduced by 50% (IC50) are indicated in μg/ml.
# [2] = test system: LTD4-induced contraction of strips of guinea pig lung; assay: inhibition of LTD4-induced contraction of strips of guinea pig lung; conditions: Cavia porcellus; LTD4 3 ng/ml; indomethacin-pretreated strips (10^-6 g/ml); test substance added after maximum contraction plateau; 37° C.; read-out: IC50 with respect to LTD4
# Experimental: as §1, §2, §3, §4
# [3] = test system: LTE4-induced contraction of strips of guinea pig lung; assay: inhibition of LTE4-induced contraction of strips of guinea pig lung; conditions: Cavia porcellus; LTE4 3 ng/ml; indomethacin-pretreated strips (10^-6 g/ml); test substance added after maximum contraction plateau; 37° C.; read-out: IC50 with respect to LTE4
# Experimental: as §1, §2, §3, §4
SMILES,IC50 [1] [µg/mL],IC50 [2] [µg/mL],IC50 [3] [µg/mL]
"COC(=O)CCSCC(O)Cc1cccc(C2CCCC2)c1OCc1ccccc1 (racemic) [Compound B, Methyl (6RS)-7-(2-benzyloxy-3-cyclopentylphenyl)-6-hydroxy-4-thiaheptanoate]",0.6,1,3
"O=C(O)CCSCC(O)Cc1cccc(C2CCCC2)c1OCc1ccccc1 (racemic) [Compound C, (6RS)-7-(2-Benzyloxy-3-cyclopentylphenyl)-6-hydroxy-4-thiaheptanoic acid]",3 to 6,3 to 6,3
"OCCSCC(O)Cc1cccc(C2CCCC2)c1OCc1ccccc1 (racemic) [Compound E, (5RS)-6-(2-benzyloxy-3-cyclopentylphenyl)-3-thiahexane-1,5-diol]",6 to 10,6 to 10,1 to 3

# Continued, values first:
IC50 [1] [µg/mL],IC50 [2] [µg/mL],IC50 [3] [µg/mL],SMILES
0.6 to 1,0.6,0.6 to 1,"COC(=O)CCSCC(O)Cc1ccccc1OCc1ccccc1 (racemic) [Compound A, Methyl (6RS)-7-(2-benzyloxyphenyl)-6-hydroxy-4-thiaheptanoate]"
6 to 10,3,1 to 3,"COC(=O)CCSCC(O)Cc1cc(Cl)ccc1OCc1ccccc1 (racemic) [Compound D, Methyl (6RS)-7-(2-benzyloxy-5-chlorophenyl)-6-hydroxy-4-thiaheptanoate]"
